Reference: patent US20260262643A1, “HERBICIDAL BENZOXAZINES” (FMC CORPORATION, priority 2022, published 2026)

Experiments:
barnyardgrass [1] = experiment: Test A preemergence; format: in vivo, Echinochloa crusgalli; conditions: visual injury after 10 days, 0 to 100 scale, 0 is no effect, 100 is complete control
Excerpt: (§1) Seeds of plant species selected from barnyardgrass (Echinochloa crusgalli), blackgrass (Alopecurus myosuroides), corn (Zea mays), foxtail, giant (giant foxtail, Setaria faberi), goosegrass (Eleusine indica), kochia (Bassia scoparia), oat, wild (wild oat, Avena fatua), pigweed, palmer (palmer amaranth, palmer pigweed, Amaranthus palmeri), Pigweed, Redroot (redroot pigweed, Amaranthus retroflexus), ragweed (common ragweed, Ambrosia artemisiifolia), ryegrass, Italian (italian ryegrass, Lolium multiflorum), soybean (Glycine max), and wheat (Triticum aestivum) were planted into a blend of loam soil and sand and treated preemergence with a directed soil spray using test chemicals formulated in a non-phytotoxic solvent mixture which included a surfactant. At the same time, plants selected from these crops and weed species and also galium (catchweed bedstraw, Galium aparine) and horseweed (Erigeron canadensis) were planted in pots containing the same blend of loam soil and sand and treated with postemergence applications of test chemicals formulated in the same manner. Plants ranged in height from 2 to 10 cm and were in the one- to two-leaf stage for the postemergence treatment. Treated plants and untreated controls were maintained in a greenhouse for 10 days, after which time all treated plants were compared to untreated controls and visually evaluated for injury. Plant response ratings, summarized in Table A, are based on a 0 to 100 scale where 0 is no effect and 100 is complete control. A dash (-) response means no test result.

blackgrass [2] = experiment: Test A preemergence; format: in vivo, Alopecurus myosuroides; conditions: 0 to 100 scale
Procedure, shortened: (§2)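 Plants were grown in loam and sand and treated preemergence or postemergence (one- to two-leaf stage, 2–10 cm) with compound in solvent plus surfactant. Response was scored against untreated controls after 10 greenhouse days, where 0 means no effect and 100 complete control.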

corn [3] = experiment: Test A preemergence; format: in vivo, Zea mays; conditions: 0 to 100 scale
Procedure, shortened: as §2

foxtail, giant = experiment: Test A preemergence; format: in vivo, Setaria faberi; conditions: 0 to 100 scale
Procedure, shortened: as §2

kochia [4] = experiment: Test A preemergence; format: in vivo, Bassia scoparia; conditions: 0 to 100 scale
Procedure, shortened: as §2

oat, wild [5] = experiment: Test A preemergence; format: in vivo, Avena fatua; conditions: 0 to 100 scale
Procedure, shortened: as §2

pigweed, palmer [6] = experiment: Test A preemergence; format: in vivo, Amaranthus palmeri; conditions: 0 to 100 scale
Procedure, shortened: as §2

ragweed [7] = experiment: Test A preemergence; format: in vivo, Ambrosia artemisiifolia; conditions: 0 to 100 scale
Procedure, shortened: as §2

ryegrass, Italian [8] = experiment: Test A preemergence; format: in vivo, Lolium multiflorum; conditions: 0 to 100 scale
Procedure, shortened: as §2

soybean [9] = experiment: Test A preemergence; format: in vivo, Glycine max; conditions: 0 to 100 scale
Procedure, shortened: as §2

wheat [10] = experiment: Test A preemergence; format: in vivo, Triticum aestivum; conditions: 0 to 100 scale
Procedure, shortened: as §2

barnyardgrass [11] = experiment: Test A postemergence; format: in vivo, Echinochloa crusgalli; conditions: postemergence, 10 days; for Barnyardgrass plant response rating: 125 g ai/ha, 0 to 100 scale, 0 no effect, 100 complete control; for Plant response rating, Barnyardgrass: 500 g ai/ha, visual injury, 0 to 100 scale (0 no effect, 100 complete control)
Excerpt: as §1

blackgrass [12] = experiment: Test A postemergence; format: in vivo, Alopecurus myosuroides; conditions: postemergence, 10 days; for Blackgrass plant response rating: 125 g ai/ha, 0 to 100 scale, 0 no effect, 100 complete control; for Plant response rating, Blackgrass: 500 g ai/ha, visual injury, 0 to 100 scale (0 no effect, 100 complete control)
Procedure, shortened: as §2

corn [13] = experiment: Test A postemergence; format: in vivo, Zea mays; conditions: postemergence, 10 days; for Corn plant response rating: 125 g ai/ha, 0 to 100 scale, 0 no effect, 100 complete control; for Plant response rating, Corn: 500 g ai/ha, visual injury, 0 to 100 scale (0 no effect, 100 complete control)
Procedure, shortened: as §2

kochia [14] = experiment: Test A postemergence; format: in vivo, Bassia scoparia; conditions: postemergence, 10 days; for Kochia plant response rating: 125 g ai/ha, 0 to 100 scale, 0 no effect, 100 complete control; for Plant response rating, Kochia: 500 g ai/ha, visual injury, 0 to 100 scale (0 no effect, 100 complete control)
Procedure, shortened: as §2

oat, wild [15] = experiment: Test A postemergence; format: in vivo, Avena fatua; conditions: postemergence, 10 days; for Oat, Wild plant response rating: 125 g ai/ha, 0 to 100 scale, 0 no effect, 100 complete control; for Plant response rating, Oat, Wild: 500 g ai/ha, visual injury, 0 to 100 scale (0 no effect, 100 complete control)
Procedure, shortened: as §2

pigweed, palmer [16] = experiment: Test A postemergence; format: in vivo, Amaranthus palmeri; conditions: postemergence, 10 days; for Pigweed, Palmer plant response rating: 125 g ai/ha, 0 to 100 scale, 0 no effect, 100 complete control; for Plant response rating, Pigweed, Palmer: 500 g ai/ha, visual injury, 0 to 100 scale (0 no effect, 100 complete control)
Procedure, shortened: as §2

ragweed [17] = experiment: Test A postemergence; format: in vivo, Ambrosia artemisiifolia; conditions: postemergence, 10 days; for Ragweed plant response rating: 125 g ai/ha, 0 to 100 scale, 0 no effect, 100 complete control; for Plant response rating, Ragweed: 500 g ai/ha, visual injury, 0 to 100 scale (0 no effect, 100 complete control)
Procedure, shortened: as §2

ryegrass, Italian [18] = experiment: Test A postemergence; format: in vivo, Lolium multiflorum; conditions: postemergence, 10 days; for Ryegrass, Italian plant response rating: 125 g ai/ha, 0 to 100 scale, 0 no effect, 100 complete control; for Plant response rating, Ryegrass, Italian: 500 g ai/ha, visual injury, 0 to 100 scale (0 no effect, 100 complete control)
Procedure, shortened: as §2

soybean [19] = experiment: Test A postemergence; format: in vivo, Glycine max; conditions: postemergence, 10 days; for Soybean plant response rating: 125 g ai/ha, 0 to 100 scale, 0 no effect, 100 complete control; for Plant response rating, Soybean: 500 g ai/ha, visual injury, 0 to 100 scale (0 no effect, 100 complete control)
Procedure, shortened: as §2

wheat [20] = experiment: Test A postemergence; format: in vivo, Triticum aestivum; conditions: postemergence, 10 days; for Wheat plant response rating: 125 g ai/ha, 0 to 100 scale, 0 no effect, 100 complete control; for Plant response rating, Wheat: 500 g ai/ha, visual injury, 0 to 100 scale (0 no effect, 100 complete control)
Procedure, shortened: as §2

galium = experiment: Test A postemergence; format: in vivo, Galium aparine; conditions: postemergence, 10 days; for Galium plant response rating: 125 g ai/ha, 0 to 100 scale, 0 no effect, 100 complete control; for Plant response rating, Galium: 500 g ai/ha, visual injury, 0 to 100 scale (0 no effect, 100 complete control)
Procedure, shortened: as §2

horseweed = experiment: Test A postemergence; format: in vivo, Erigeron canadensis; conditions: postemergence, 10 days; for Horseweed plant response rating: 125 g ai/ha, 0 to 100 scale, 0 no effect, 100 complete control; for Plant response rating, Horseweed: 500 g ai/ha, visual injury, 0 to 100 scale (0 no effect, 100 complete control)
Procedure, shortened: as §2

barnyardgrass [21] = experiment: Test B flooded paddy test; format: in vivo, Echinochloa crus-galli; conditions: 250 g ai/ha, Flood, 13 days, 0 to 100 scale (0 no effect, 100 complete control)
Procedure, shortened: (§3)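 Two-leaf plants, 3 cm flood, in-water application, 13-day greenhouse hold, visual 0–100 rating vs untreated checks.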

ducksalad = experiment: Test B flooded paddy test; format: in vivo, Heteranthera limosa; conditions: 250 g ai/ha, Flood, 13 days, 0 to 100 scale (0 no effect, 100 complete control)
Procedure, shortened: as §3

rice = experiment: Test B flooded paddy test; format: in vivo, Oryza sativa; conditions: 250 g ai/ha, Flood, 13 days, 0 to 100 scale (0 no effect, 100 complete control)
Procedure, shortened: as §3

sedge, umbrella = experiment: Test B flooded paddy test; format: in vivo, Cyperus difformis; conditions: 250 g ai/ha, Flood, 13 days, 0 to 100 scale (0 no effect, 100 complete control)
Procedure, shortened: as §3

[22] = 500 g ai/ha, visual injury after 10 days, 0 is no effect, 100 is complete control

Cc1ccc(-n2cnc(CO)n2)cc1C(=O)N1C[C@H](C)Oc2c(Cl)cccc21 [Compound 148]
40: Blackgrass plant response rating (blackgrass [12])
55: Plant response rating, Ducksalad (ducksalad)
80: Plant response rating, Blackgrass (blackgrass [2]; 125 g ai/ha) | Plant response rating, Oat, Wild (oat, wild [5]; [22]) | Plant response rating, Ryegrass, Italian (ryegrass, Italian [8]; 125 g ai/ha) | Plant response rating, Barnyardgrass (barnyardgrass [11]) | Corn plant response rating (corn [13]) | Plant response rating, Kochia (kochia [14]) | Plant response rating, Ryegrass, Italian (ryegrass, Italian [18])
50: Kochia plant response rating (kochia [14]) | Ragweed plant response rating (ragweed [17]) | Ryegrass, Italian plant response rating (ryegrass, Italian [18]) | Horseweed plant response rating (horseweed) | Plant response rating, Horseweed (horseweed)
20: Plant response rating, Kochia (kochia [4]; 125 g ai/ha) | Plant response rating, Oat, Wild (oat, wild [5]; 125 g ai/ha) | Oat, Wild plant response rating (oat, wild [15])
15: Plant response rating, Rice (rice)
65: Plant response rating, Sedge, Umbrella (sedge, umbrella)
100: Plant response rating, Barnyardgrass (barnyardgrass [1]; 500 g ai/ha) | Plant response rating, Foxtail, Giant (foxtail, giant; 125 g ai/ha) | Plant response rating, Foxtail, Giant (foxtail, giant; [22]) | Plant response rating, Pigweed, Palmer (pigweed, palmer [6]; 125 g ai/ha) | Plant response rating, Pigweed, Palmer (pigweed, palmer [6]; [22]) | Plant response rating, Ryegrass, Italian (ryegrass, Italian [8]; [22]) | Plant response rating, Soybean (soybean [9]; [22]) | Plant response rating, Pigweed, Palmer (pigweed, palmer [16]) | Soybean plant response rating (soybean [19]) | Plant response rating, Soybean (soybean [19]) | Plant response rating, Galium (galium)
60: Plant response rating, Corn (corn [3]; 125 g ai/ha) | Plant response rating, Corn (corn [3]; [22])
30: Plant response rating, Ragweed (ragweed [7]; 125 g ai/ha) | Plant response rating, Wheat (wheat [10]; 125 g ai/ha) | Barnyardgrass plant response rating (barnyardgrass [11]) | Wheat plant response rating (wheat [20])
70: Plant response rating, Barnyardgrass (barnyardgrass [1]; 125 g ai/ha) | Plant response rating, Kochia (kochia [4]; [22]) | Plant response rating, Soybean (soybean [9]; 125 g ai/ha) | Plant response rating, Oat, Wild (oat, wild [15]) | Plant response rating, Ragweed (ragweed [17]) | Plant response rating, Wheat (wheat [20])
25: Plant response rating, Barnyardgrass (barnyardgrass [21])
90: Plant response rating, Blackgrass (blackgrass [2]; [22]) | Plant response rating, Ragweed (ragweed [7]; [22]) | Plant response rating, Wheat (wheat [10]; [22]) | Plant response rating, Blackgrass (blackgrass [12]) | Plant response rating, Corn (corn [13]) | Pigweed, Palmer plant response rating (pigweed, palmer [16]) | Galium plant response rating (galium)

Cc1ccc(-n2cnc(C(C)(C)O)n2)cc1C(=O)N1C[C@H](C)Oc2c(Cl)cccc21 [Compound 149]
70: Plant response rating, Horseweed (horseweed)
75: Plant response rating, Ducksalad (ducksalad)
90: Plant response rating, Blackgrass (blackgrass [2]; [22]) | Plant response rating, Corn (corn [3]; [22]) | Plant response rating, Oat, Wild (oat, wild [5]; 125 g ai/ha) | Plant response rating, Oat, Wild (oat, wild [5]; [22]) | Plant response rating, Pigweed, Palmer (pigweed, palmer [6]; 125 g ai/ha) | Plant response rating, Ragweed (ragweed [7]; [22]) | Plant response rating, Wheat (wheat [10]; [22]) | Blackgrass plant response rating (blackgrass [12]) | Plant response rating, Blackgrass (blackgrass [12]) | Corn plant response rating (corn [13]) | Plant response rating, Kochia (kochia [14]) | Oat, Wild plant response rating (oat, wild [15]) | Plant response rating, Oat, Wild (oat, wild [15]) | Plant response rating, Pigweed, Palmer (pigweed, palmer [16]) | Plant response rating, Ragweed (ragweed [17]) | Wheat plant response rating (wheat [20]) | Plant response rating, Wheat (wheat [20])
20: Plant response rating, Rice (rice)
30: Plant response rating, Wheat (wheat [10]; 125 g ai/ha)
35: Plant response rating, Barnyardgrass (barnyardgrass [21])
100: Plant response rating, Barnyardgrass (barnyardgrass [1]; 125 g ai/ha) | Plant response rating, Barnyardgrass (barnyardgrass [1]; 500 g ai/ha) | Plant response rating, Foxtail, Giant (foxtail, giant; 125 g ai/ha) | Plant response rating, Foxtail, Giant (foxtail, giant; [22]) | Plant response rating, Kochia (kochia [4]; 125 g ai/ha) | Plant response rating, Kochia (kochia [4]; [22]) | Plant response rating, Pigweed, Palmer (pigweed, palmer [6]; [22]) | Plant response rating, Ragweed (ragweed [7]; 125 g ai/ha) | Plant response rating, Ryegrass, Italian (ryegrass, Italian [8]; 125 g ai/ha) | Plant response rating, Ryegrass, Italian (ryegrass, Italian [8]; [22]) | Plant response rating, Soybean (soybean [9]; 125 g ai/ha) | Plant response rating, Soybean (soybean [9]; [22]) | Plant response rating, Barnyardgrass (barnyardgrass [11]) | Plant response rating, Corn (corn [13]) | Plant response rating, Ryegrass, Italian (ryegrass, Italian [18]) | Soybean plant response rating (soybean [19]) | Plant response rating, Soybean (soybean [19]) | Galium plant response rating (galium) | Plant response rating, Galium (galium) | Plant response rating, Sedge, Umbrella (sedge, umbrella)
50: Barnyardgrass plant response rating (barnyardgrass [11]) | Horseweed plant response rating (horseweed)
60: Plant response rating, Corn (corn [3]; 125 g ai/ha)
80: Plant response rating, Blackgrass (blackgrass [2]; 125 g ai/ha) | Kochia plant response rating (kochia [14]) | Pigweed, Palmer plant response rating (pigweed, palmer [16]) | Ragweed plant response rating (ragweed [17]) | Ryegrass, Italian plant response rating (ryegrass, Italian [18])
